# Results: a melting point compilation (Tetko et al.; mined from patent text by program, amines drawn as free bases though some values may be those of a salt)
row,Compound,melting point
1,COc1ccc([N+](=O)[O-])cc1C=CC1=NC(C)(C)CO1,115 to 116 °C
2,NCC(=O)Nc1ccc(S(=O)(=O)c2cccc(Cl)c2)cc1,195 to 196 °C
3,O=c1ccc2ccc(OCCCN3CCC(C(O)(c4ccc(F)cc4)c4ccc(F)cc4)CC3)cc2o1,99 to 120 °C
4,CCN(C)C(=O)C1=CC(C)(C)Oc2ccc([N+](=O)[O-])cc21,121 to 124 °C
5,O=C(NCCN1CCN(c2cccc(Cl)c2)CC1)c1nsc2ccccc12,115 to 117 °C
6,COCCc1nc2c(N)nc3ccccc3c2n1CCCNS(=O)(=O)c1ccc(C)cc1,189 to 191 °C
7,NC(=O)c1ccc(CN2C(=O)C3(COc4cc5c(cc43)OCCO5)c3ccccc32)cc1 (centres undefined),236 to 238 °C
8,CCC(=O)N1CCC(=NO)c2cc(Cl)ccc21,166 to 169 °C
9,COC1=C(c2ccccc2)C(CCCC(=O)O)OC1=O (centres undefined),94 to 96 °C
10,CCCCCCNC(=O)C1=C(C(=O)Nc2cc(OC3CCCC3)c(Cl)cc2F)CCCC1,128 to 130 °C
11,CCOC(=O)c1ccc(-c2c[nH]c(-c3ccc4c(c3)C(C)(C)CCC4(C)C)n2)cc1,186 to 188 °C
12,CCc1c(Cc2[nH]c(C=O)c(C)c2CCCOC(C)=O)[nH]c(Cc2[nH]c(C=O)c(C)c2CCCOC(C)=O)c1CC,179 to 181 °C
13,O=C1c2cccnc2N(c2ccccc2)C(=O)C12CCCCO2 (centres undefined),213 to 215 °C
14,CC(C)(C)C(NC(=O)c1ccc(Cl)cc1)NC(Nc1cccnc1)=C(C#N)C#N (centres undefined),213 to 214 °C
15,CCCc1c(OCCCCCc2c(Cl)ccc(OC)c2OC)ccc(C(=O)O)c1O,140 to 142 °C
16,Clc1ccc(-c2cnccn2)cc1Cl,118 to 119 °C
17,N=C(N)NC(=O)c1nc(F)c(N)nc1N,233 °C
18,CCCCCCCCCCCCOc1ccc(-c2ccc(CCCCC(=O)OCC)cc2)cc1,99 °C
19,Cc1cc(-c2cc(C(F)(F)F)n3ncc(C(=O)Nc4cccc(S(=O)(=O)N5CCN(C)CC5)c4)c3n2)ccc1C(F)(F)F,199 °C
20,Nc1c(C(=O)O)c(=O)[nH]c2ccccc12,> 250 °C
21,ONCc1ccccc1Cl,71 to 73 °C
22,Cc1ccc2c(c1)Oc1ccc([N+](=O)[O-])cc1C(=O)N2C,156 to 159 °C
23,CSc1ccc(C=C2CCc3cc(OCCn4ccnc4)ccc3C2=O)cc1,161 to 162 °C
24,COc1cc(CN[C@H]2CC[C@H](Nc3ccnc4cc(Cl)ccc34)CC2)cc(OC)c1,150 °C
25,COc1cc(C=O)cc(-c2cc3c(cc2F)c(=O)c(C(=O)O)cn3C2CC2)c1OC,> 230 °C

# Results, then the molecule that gave them:
row,melting point,Compound
1,242 to 245 °C,O=[N+]([O-])c1ccc(Oc2ccc(Oc3ccc([N+](=O)[O-])c(O)c3)cc2)cc1O
2,152 to 155 °C,CCC(O)(CC)[C@H](C[C@H](O)[C@H](CC1CCCCC1)NC(=O)OC(C)(C)C)C(=O)NC
3,141 to 145 °C,COc1ccc(Br)c(C(=NNS(=O)(=O)c2ccccc2)N2CCN(C)CC2)c1
4,188 to 189 °C,Cc1c(Br)csc1C(=O)O
5,233 °C,Cc1nc2c(O)c(C(=O)[C@@H]3OC(C)(C)O[C@H]3c3ccccc3)ccc2n1C
6,117 to 120 °C,COC(=O)c1ccc(Cc2c[nH]c3ccc(C=O)cc23)c(OC)c1
7,118 to 128 °C,CC(=O)C(Cc1cc(O)c(O)c([N+](=O)[O-])c1)C(C)=O
8,252 °C,COc1ccc(Cl)c(Oc2c(C)nc(N3CCOCC3)nc2O)c1
9,103 to 104 °C,COc1ccc2c(c1)CCC1C2CCC2(CC(C)C)C(O)CCC12 (centres undefined)
10,82.5 to 83.5 °C,CCCCCCCCCCCCCCCCCCNC(=O)OCC(CNS(=O)(=O)CCCI)n1nnnc1C (centres undefined)
11,150 °C,COc1nc(OC)c(C=O)c(N(C)C)n1
12,246 to 248 °C,COc1ccc(-c2nc(C)c(-c3cccnc3)[nH]2)cc1OC
13,302 to 304 °C,O=[N+]([O-])c1cc(C2=Nc3ccccc3SC2)cc(O)c1O
14,270 °C,Cc1cc(-c2cc(C(F)F)n3ncc(C(=O)Nc4cccc(S(C)(=O)=O)c4)c3n2)ccc1Cl
